Test results published in US6953789B2, “Thiol compounds, their production and use” (Takeda Chemical Industries, Ltd., priority 1998, dated 2005).

Target: T1, recombinant human MMP-13 (Homo sapiens, UniProt P45452)
T1 construct: made in house; host or cells: baculovirus (pBlueBac4 / Bac-N-Blue; virus made in Sf9), expressed in High-Five insect cells; culture supernatant used
Assay: Assay of MMP-13 inhibiting activity (fluorogenic peptide substrate)
Type: biochemical
Details: Table 3; 37° C., 2 hours
Text: Based on the sequence described in the literature by Freije, J. M. et al (Journal of Biological Chemistry, 269: 16766-16773, 1994) and using a PCR method known per se, a human MMP-13 cDNA was obtained.
A pBlueBac4 (Invitrogen) and a Baculovirus vector Bac-N-Blue (Invitrogen) to each of which the human MMP-13 cDNA obtained above was integrated were co-transfected to an Sf9 cell to obtain a MMP-13-expressing recombinant virus.
The recombinant virus thus obtained was infected to a High-Five cell (Invitrogen), and the culture supernatant after three days was employed as an enzyme solution. Experiment 2 Assay of MMP-13 inhibiting activity
75 μl of a sample containing the recombinant human MMP-13, 200 mM sodium chloride, 20 mM calcium chloride, 0.1% Brij 35, 1 mM 2-mercaptoethanol, 200 mM tris-HCl buffer solution (pH7.5) and a test substance at various concentrations was treated with 25 μl of 40 μM MOCAc-Pro-Leu-Gly-Leu-A2pr(DNP)-Ala-Arg-NH2 (PEPTIDE KENKYUSHO) to initiate a reaction and kept at 37° C. for 2 hours, and then 100 μl of 500 mM sodium acetate-HCl buffer solution (pH3.0) was added to terminate the reaction.
The level of liberated MOCAc-Pro-Leu-Gly was determined using a fluorophotometer (MTP-32/F2: CORONA DENKI) at the excitation wavelength of 330 nm and the fluorescent wavelength of 405 nm. The fluorescent level of the reaction in the absence of a test substance was regarded as 100%, and the concentration of each test substance required for achieving 50% inhibition was indicated as IC50.

Structure (SMILES)	IC50 [nM]
NC(=O)S[C@@H]1CC(=O)N(Cc2ccc(Oc3ccccc3)cc2)C1 [Example 49, S-[(3R)-5-oxo-1-(4-phenoxybenzyl)pyrrolidinyl]thiocarbamate]	0.65
CNC(=O)S[C@@H]1CC(=O)N(Cc2ccc(Oc3ccccc3)cc2)C1 [Example 50, S-[(3R)-5-oxo-1-(4-phenoxybenzyl)pyrrolidinyl]methylthiocarbamate]	3
CCNC(=O)S[C@@H]1CC(=O)N(Cc2ccc(Oc3ccccc3)cc2)C1 [Example 51, S-[(3R)-5-oxo-1-(4-phenoxybenzyl)pyrrolidinyl]ethylthiocarbamate]	1
CCCNC(=O)SC1CC(=O)N(Cc2ccc(Oc3ccccc3)cc2)C1 (stereo not drawn) [Example 52, S-[5-oxo-1-(4-phenoxybenzyl)-3-pyrrolidinyl]propylcarbamothioate]	2
O=C(Nc1ccccc1)SC1CC(=O)N(Cc2ccc(Oc3ccccc3)cc2)C1 (stereo not drawn) [Example 53, S-[5-oxo-1-(4-phenoxybenzyl)-3-pyrrolidinyl]phenylcarbamothioate]	1
O=C(NCc1ccccc1)S[C@@H]1CC(=O)N(Cc2ccc(Oc3ccccc3)cc2)C1 [Example 54, S-[(3R)-5-oxo-1-(4-phenoxybenzyl)pyrrolidinyl]benzylthiocarbamate]	1.5
CC(=O)NC(=O)S[C@@H]1CC(=O)N(Cc2ccc(Oc3ccccc3)cc2)C1 [Example 55, S-[(3R)-5-oxo-1-(4-phenoxybenzyl)pyrrolidinyl]acetylthiocarbamate]	1.3
O=C(NC(=O)c1ccccc1)S[C@@H]1CC(=O)N(Cc2ccc(Oc3ccccc3)cc2)C1 [Example 56, S-[(3R)-5-oxo-1-(4-phenoxybenzyl)pyrrolidinyl]benzoylthiocarbamate]	1.4
CCOC(=O)NC(=O)S[C@@H]1CC(=O)N(Cc2ccc(Oc3ccccc3)cc2)C1 [Example 57, O-Ethyl S-[(3R)-5-oxo-1-(4-phenoxybenzyl)pyrrolidinyl]imidothiodicarbonate]	0.81
CCOC(=O)CNC(=O)S[C@@H]1CC(=O)N(Cc2ccc(Oc3ccccc3)cc2)C1 [Example 58, Ethyl [({[(3R)-5-oxo-1-(4-phenoxybenzyl)pyrrolidinyl]sulfanyl}carbonyl)amino]acetate]	0.7
O=C(O)CNC(=O)S[C@@H]1CC(=O)N(Cc2ccc(Oc3ccccc3)cc2)C1 [Example 59, [({[(3R)-5-Oxo-1-(4-phenoxybenzyl)pyrrolidinyl]sulfanyl}carbonyl)amino]acetic acid]	2
CCOC(=O)CCNC(=O)S[C@@H]1CC(=O)N(Cc2ccc(Oc3ccccc3)cc2)C1 [Example 60, Ethyl [({[(3R)-5-oxo-1-(4-phenoxybenzyl)pyrrolidinyl]sulfanyl}carbonyl)amino]propanoate]	0.9
O=C(O)CCNC(=O)S[C@@H]1CC(=O)N(Cc2ccc(Oc3ccccc3)cc2)C1 [Example 61, N-({[(3R)-5-oxo-1-(4-phenoxybenzyl)pyrrolidinyl]sulfanyl}carbonyl)-p-alanine]	1.8
CN(C)C(=O)S[C@@H]1CC(=O)N(Cc2ccc(Oc3ccccc3)cc2)C1 [Example 62, S-[(3R)-5-oxo-1-(4-phenoxybenzyl)pyrrolidinyl]dimethylcarbamothioate]	3000
O=C1C[C@@H](SC(=O)N2CCOCC2)CN1Cc1ccc(Oc2ccccc2)cc1 [Example 63, S-[(3R)-5-oxo-1-(4-phenoxybenzyl)pyrrolidinyl]4-morpholinecarbothioate]	2000
CCC(=O)S[C@@H]1CC(=O)N(Cc2ccc(Oc3ccccc3)cc2)C1 [Example 64, S-[(3R)-5-oxo-1-(4-phenoxybenzyl)pyrrolidinyl]propanethioate]	3.2
CCCC(=O)S[C@@H]1CC(=O)N(Cc2ccc(Oc3ccccc3)cc2)C1 [Example 65, S-[(3R)-5-oxo-1-(4-phenoxybenzyl)pyrrolidinyl]butanethioate]	1.3
CCCCC(=O)SC1CC(=O)N(Cc2ccc(Oc3ccccc3)cc2)C1 (stereo not drawn) [Example 66, S-[5-oxo-1-(4-phenoxybenzyl)-3-pyrrolidinyl]pentanethioate]	1
CC(C)C(=O)S[C@@H]1CC(=O)N(Cc2ccc(Oc3ccccc3)cc2)C1 [Example 67, S-[(3R)-5-oxo-1-(4-phenoxybenzyl)pyrrolidinyl]2-methylpropanethioate]	11
O=C(Cc1ccccc1)SC1CC(=O)N(Cc2ccc(Oc3ccccc3)cc2)C1 (stereo not drawn) [Example 68, S-[5-oxo-1-(4-phenoxybenzyl)-3-pyrrolidinyl]2-phenylethanethioate]	2
O=C(Cc1ccc(Cl)cc1)SC1CC(=O)N(Cc2ccc(Oc3ccccc3)cc2)C1 (stereo not drawn) [Example 69, S-[5-oxo-1-(4-phenoxybenzyl)-3-pyrrolidinyl]-(4-chlorophenyl)ethanethioate]	20
O=C(SC1CC(=O)N(Cc2ccc(Oc3ccccc3)cc2)C1)C(c1ccccc1)c1ccccc1 (stereo not drawn) [Example 70, S-[5-oxo-1-(4-phenoxybenzyl)-3-pyrrolidinyl] 2,2-diphenylethanethioate]	2
CCOC(=O)CC(=O)S[C@@H]1CC(=O)N(Cc2ccc(Oc3ccccc3)cc2)C1 [Example 71, Ethyl 3-oxo-3-{[(3R)-5-oxo-1-(4-phenoxybenzyl)pyrrolidinyl]sulfanyl}propanoate]	0.89
CC(C)(C)OC(=O)CC(=O)S[C@@H]1CC(=O)N(Cc2ccc(Oc3ccccc3)cc2)C1 [Example 72, t-Butyl 3-oxo-3-{[(3R)-5-oxo-1-(4-phenoxybenzyl)pyrrolidinyl]sulfanyl}propanoate]	2.4

Same assay, conditions: Table 4; 37° C., 2 hours

Structure (SMILES)	IC50 [nM]
CC(=O)SC1CC(=O)N(Cc2cccc(Oc3ccccc3)c2)C1 (stereo not drawn) [Example 40, 4-Acetylthio-1-(3-phenoxybenzyl)pyrrolidin-2-one]	1000
O=C1CC(S)CN1Cc1cccc(Oc2ccccc2)c1 (stereo not drawn) [Example 41, 4-Mercapto-1-(3-phenoxybenzyl)pyrrolidin-2-one]	200

Same assay, conditions: Table 8; 37° C., 2 hours

Structure (SMILES)	IC50 [nM]
O=C(SC1CCN(Cc2ccc(Oc3ccccc3)cc2)C1=O)c1ccccc1 (stereo not drawn) [Example 28, 3-Benzoylthio-1-(4-phenoxybenzyl)pyrrolidin-2-one]	1000
O=C1C(S)CCN1Cc1ccc(Oc2ccccc2)cc1 (stereo not drawn) [Example 29, 3-Mercapto-1-(4-phenoxybenzyl)pyrrolidin-2-one]	2000

Same assay, conditions: Table 9; 37° C., 2 hours

Structure (SMILES)	IC50 [nM]
CC(=O)SC1CC(=O)N(Cc2ccc(Oc3ccc(F)cc3)cc2)C1 (stereo not drawn) [Example 30, 4-Acetylthio-1-(4-(4′-fluorophenoxy)benzyl)pyrrolidin-2-one]	10
O=C1CC(S)CN1Cc1ccc(Oc2ccc(F)cc2)cc1 (stereo not drawn) [Example 31, 4-Mercapto-1-(4-(4′-fluorophenoxy)benzyl)pyrrolidin-2-one]	3
CC(=O)SC1CC(=O)N(Cc2ccc(Oc3ccc(Cl)cc3)cc2)C1 (stereo not drawn) [Example 32, 4-Acetylthio-1-(4-(4′-chlorophenoxy)benzyl)pyrrolidin-2-one]	8
O=C1CC(S)CN1Cc1ccc(Oc2ccc(Cl)cc2)cc1 (stereo not drawn) [Example 33, 4-Mercaoto-1-(4-(4′-chlorophenoxy)benzyl)pyrrolidin-2-one]	5
CC(=O)SC1CC(=O)N(Cc2ccc(Oc3ccc(Br)cc3)cc2)C1 (stereo not drawn) [Example 34, 4-Acetylthio-1-(4-(4′-bromophenoxy)benzyl)pyrrolidin-2-one]	10
O=C1CC(S)CN1Cc1ccc(Oc2ccc(Br)cc2)cc1 (stereo not drawn) [Example 35, 4-Mercapto-1-(4-(4′-bromophenoxy)benzyl)pyrrolidin-2-one]	6
COc1ccc(Oc2ccc(CN3CC(SC(C)=O)CC3=O)cc2)cc1 (stereo not drawn) [Example 36, 4-Acetylthio-1-(4-(4′-methoxyphenoxy)benzyl)pyrrolidin-2-one]	50
COc1ccc(Oc2ccc(CN3CC(S)CC3=O)cc2)cc1 (stereo not drawn) [Example 37, 4-Mercapto-1-(4-(4′-methoxyphenoxy)benzyl)pyrrolidin-2-one]	5

Same assay, conditions: Table 13; 37° C., 2 hours

Structure (SMILES)	IC50 [nM]
CC(=O)SC1CCC(=O)N(Cc2ccc(Oc3ccccc3)cc2)C1=O (stereo not drawn) [Example 42, 3-Acetylthio-1-(4-phenoxybenzyl)piperidine-2,6-dione]	70
CC(=O)SC1CCC(=O)N(Cc2ccc(Oc3ccc(Br)cc3)cc2)C1=O (stereo not drawn) [Example 43, 3-Acetylthio-1-[4-(4-bromophenoxy)benzyl]piperidine-2,6-dione]	20
O=C(SC1CCC(=O)N(Cc2ccc(Oc3ccccc3)cc2)C1=O)c1ccccc1 (stereo not drawn) [Example 44, 3-Benzoylthio-1-(4-phenoxybenzyl)piperidine-2,6-dione]	10
CC(=O)SC1CCCN(Cc2ccc(Oc3ccccc3)cc2)C1=O (stereo not drawn) [Example 46, 3-Acetylthio-1-(4-phenoxybenzyl)piperidin-2-one]	> 10000
O=C(SC1CCCN(Cc2ccc(Oc3ccccc3)cc2)C1=O)c1ccccc1 (stereo not drawn) [Example 47, 3-Benzoylthio-1-(4-phenoxybenzyl)piperidin-2-one]	4000
O=C1C(S)CCCN1Cc1ccc(Oc2ccccc2)cc1 (stereo not drawn) [Example 48, 3-Mercapto-1-(4-phenoxybenzyl)piperidin-2-one]	5000
